In ChEMBL document CHEMBL1201862, “PubChem BioAssay data set” (2004):
Active and inactive are the calls of the source.

Tests used:
[1] = molecular target: Neuropeptide Y receptor type 1 (Homo sapiens, UniProt P25929); assay type: functional;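 note: HEK293 cells with a CNG channel challenged with NPY then isoproterenol; potency as antagonist that reverses NPY suppression of cAMP signal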
[2] = Trypanosoma cruzi growth suppression in host cells – NIH3T3 host cells, beta-gal luminescence, confirmation (AID 2044); assay type: functional, cell-based;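 note: intracellular parasites grown in NIH/3T3 mouse fibroblasts as host cells; luminescent beta-galactosidase reporter signal from transgenic T. cruzi replicating inside host cells; inhibitors lower the luminescence signal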
[3] = molecular target: Neuropeptide Y receptor type 2 (Homo sapiens, UniProt P49146); assay type: functional, cell-based;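 note: HEK293 cells expressing the receptor and a CNG channel; stimulus was NPY near EC95 followed by isoproterenol to raise cAMP; antagonist potency measured as restoring cAMP signal that NPY suppresses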
Neuropeptide Y receptor type 2, sequence (P49146 whole entry): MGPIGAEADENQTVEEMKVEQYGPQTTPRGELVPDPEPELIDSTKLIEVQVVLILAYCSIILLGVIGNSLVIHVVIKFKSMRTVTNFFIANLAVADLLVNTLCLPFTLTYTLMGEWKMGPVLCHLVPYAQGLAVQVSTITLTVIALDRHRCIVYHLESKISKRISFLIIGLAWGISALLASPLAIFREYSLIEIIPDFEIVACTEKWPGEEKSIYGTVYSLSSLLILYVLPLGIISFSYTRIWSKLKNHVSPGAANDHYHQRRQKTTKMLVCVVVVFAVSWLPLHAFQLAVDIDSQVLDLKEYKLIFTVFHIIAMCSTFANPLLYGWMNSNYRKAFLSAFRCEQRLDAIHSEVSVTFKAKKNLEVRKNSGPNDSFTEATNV

[4] = viability of PTEN-deleted HCT116 cells – cell-based, HCT116 PTEN knockout, dose response (AID 1047); assay type: functional;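 note: HCT116 colon tumor cells with PTEN knocked out; cells exposed to compound for 60 hours before readout; potency for loss of cell viability measured by luminescence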
[5] = NIH3T3 cell viability loss – ATP luminescence, mouse fibroblasts, counter-screen, dose response (AID 2010); assay type: functional, cell-based;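 note: cells exposed to compound for about 90 hours before reading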
[6] = viability of HCT116 lacking mutant beta-catenin – cell-based, human colon tumor, dose response (AID 1045); assay type: functional;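 note: HCT116 colon tumor cells with beta catenin knocked out; cells exposed to compound for 60 hours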
[7] = molecular target: RNA-editing ligase 1, mitochondrial (Trypanosoma brucei brucei, UniProt P86926); test: inhibition of trypanosome RNA editing ligase – biochemical, fluorescence, Trypanosoma brucei, dose response (AID 1117295); assay type: functional
RNA-editing ligase 1, mitochondrial, sequence (P86926 whole entry): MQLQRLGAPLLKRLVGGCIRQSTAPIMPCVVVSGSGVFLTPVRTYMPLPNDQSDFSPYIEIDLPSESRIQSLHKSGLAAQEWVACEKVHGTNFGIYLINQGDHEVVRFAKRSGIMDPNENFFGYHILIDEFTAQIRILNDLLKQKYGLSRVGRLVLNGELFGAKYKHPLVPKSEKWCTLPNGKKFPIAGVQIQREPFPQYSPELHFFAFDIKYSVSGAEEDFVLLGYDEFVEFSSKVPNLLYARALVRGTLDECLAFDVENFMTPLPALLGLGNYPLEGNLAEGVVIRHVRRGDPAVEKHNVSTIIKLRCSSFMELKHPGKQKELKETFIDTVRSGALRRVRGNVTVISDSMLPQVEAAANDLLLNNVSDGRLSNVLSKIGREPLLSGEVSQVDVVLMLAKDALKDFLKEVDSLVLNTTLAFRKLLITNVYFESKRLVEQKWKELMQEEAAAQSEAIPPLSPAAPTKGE

[8] = tested on: Streptococcus sp. 'group A'; test: Streptococcus pyogenes SK(-)GAS viability under kanamycin – luminescence, BacTiterGlo, confirmation, counter-screen for streptokinase expression inhibitor project, dose response (AID 1900); assay type: functional, organism-based
Streptococcus [9] = test: Luminescence Microorganism-Based Dose Response Follow up to Identify Compounds Cytotoxic to Streptococcus. [Related pubchem assays: 1677 (Project Summary), 1915, 1914, 1902 (Retest at Dose), 1900 (Counter Screen), 1662 (Primary HTS)]; assay type: functional, organism-based
Streptokinase A = molecular target: T1, Streptokinase A (Streptococcus pyogenes serotype M1, UniProt P10520); test: viability-normalized secreted streptokinase activity reduction – plasminogen activation absorbance, OD405, dose response (AID 1914); assay type: functional, Streptococcus pyogenes M1 GAS;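 note: secreted streptokinase activity via plasminogen activation per viability signal from cell pellet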
T1 sequence (P10520 whole entry): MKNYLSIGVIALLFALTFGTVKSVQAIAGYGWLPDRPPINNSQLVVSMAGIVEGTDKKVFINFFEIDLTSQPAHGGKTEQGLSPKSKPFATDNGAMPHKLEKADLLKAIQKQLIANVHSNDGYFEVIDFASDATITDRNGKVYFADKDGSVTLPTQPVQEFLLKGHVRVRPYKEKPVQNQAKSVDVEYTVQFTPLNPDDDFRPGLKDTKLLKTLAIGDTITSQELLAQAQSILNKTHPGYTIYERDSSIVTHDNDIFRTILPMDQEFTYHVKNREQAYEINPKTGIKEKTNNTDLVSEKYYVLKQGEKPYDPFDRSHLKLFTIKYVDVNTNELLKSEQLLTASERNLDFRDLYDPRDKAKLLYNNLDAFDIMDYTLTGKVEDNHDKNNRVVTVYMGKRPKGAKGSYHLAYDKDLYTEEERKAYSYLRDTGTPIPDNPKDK

Streptococcus [10] = test: GAS UMAA2166 growth inhibition – luminescence, BacTiterGlo, counter-screen for streptokinase expression inhibitor project, dose response (AID 1915); assay type: functional, organism-based;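 note: potency for reduction of bacterial viability or growth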
[11] = Counterscreen for IDE inhibitors: Luminescence-based cell-based high throughput dose response assay to identify compounds that are cytotoxic to HEK cells. [Related pubchem assays: 434962 (Primary screen (IDE inhibitors in singlicate)), 449730 (Counterscreen (Cytotoxicity in triplicate)), 435028 (Confirmation (IDE inhibitors in triplicate)) …; assay type: functional; settings: HEK293
Insulin-degrading enzyme = molecular target: T2, Insulin-degrading enzyme (Homo sapiens, UniProt P14735); test: Dose Response: Fluorescence polarization-based cell-based high throughput dose response assay for inhibitors of insulin-degrading enzyme (IDE). [Related pubchem assays: 434962 (Primary screen (IDE inhibitors in singlicate)), 449730 (Counterscreen (Cytotoxicity in triplicate)), 435028 (Confirmation (IDE inhibitors in triplicate)), 434984 (Summary …; assay type: functional
T2 sequence (P14735 whole entry): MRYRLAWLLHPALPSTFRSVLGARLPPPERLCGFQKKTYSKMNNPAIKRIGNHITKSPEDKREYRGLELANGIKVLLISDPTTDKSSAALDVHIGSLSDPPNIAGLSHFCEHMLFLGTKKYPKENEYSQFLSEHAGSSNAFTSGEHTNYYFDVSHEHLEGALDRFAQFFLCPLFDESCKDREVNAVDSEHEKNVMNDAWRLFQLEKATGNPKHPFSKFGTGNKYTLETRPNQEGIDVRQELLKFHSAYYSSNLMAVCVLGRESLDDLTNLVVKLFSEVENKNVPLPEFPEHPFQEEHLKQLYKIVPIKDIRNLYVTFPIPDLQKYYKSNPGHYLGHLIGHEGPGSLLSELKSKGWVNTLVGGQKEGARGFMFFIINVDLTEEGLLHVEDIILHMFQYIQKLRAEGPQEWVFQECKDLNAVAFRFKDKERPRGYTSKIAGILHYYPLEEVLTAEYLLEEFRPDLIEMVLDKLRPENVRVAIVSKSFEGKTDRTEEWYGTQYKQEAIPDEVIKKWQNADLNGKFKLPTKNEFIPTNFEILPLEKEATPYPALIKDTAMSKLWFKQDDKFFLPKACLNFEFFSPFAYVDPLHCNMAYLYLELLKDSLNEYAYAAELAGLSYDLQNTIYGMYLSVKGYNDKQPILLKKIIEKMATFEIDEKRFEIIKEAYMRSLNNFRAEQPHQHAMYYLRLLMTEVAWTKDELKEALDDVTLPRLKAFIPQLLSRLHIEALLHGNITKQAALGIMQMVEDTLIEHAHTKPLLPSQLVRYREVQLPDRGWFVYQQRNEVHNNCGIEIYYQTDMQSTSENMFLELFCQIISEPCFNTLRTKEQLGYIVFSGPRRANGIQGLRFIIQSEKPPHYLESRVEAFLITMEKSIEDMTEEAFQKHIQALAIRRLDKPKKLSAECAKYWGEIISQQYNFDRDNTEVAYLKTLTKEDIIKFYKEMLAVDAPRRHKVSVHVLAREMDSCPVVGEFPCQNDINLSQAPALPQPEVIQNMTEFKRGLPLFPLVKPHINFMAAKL

Protein skinhead-1 = molecular target: T3, Protein skinhead-1 (Caenorhabditis elegans, UniProt P34707); assay type: functional
T3 sequence (P34707 whole entry): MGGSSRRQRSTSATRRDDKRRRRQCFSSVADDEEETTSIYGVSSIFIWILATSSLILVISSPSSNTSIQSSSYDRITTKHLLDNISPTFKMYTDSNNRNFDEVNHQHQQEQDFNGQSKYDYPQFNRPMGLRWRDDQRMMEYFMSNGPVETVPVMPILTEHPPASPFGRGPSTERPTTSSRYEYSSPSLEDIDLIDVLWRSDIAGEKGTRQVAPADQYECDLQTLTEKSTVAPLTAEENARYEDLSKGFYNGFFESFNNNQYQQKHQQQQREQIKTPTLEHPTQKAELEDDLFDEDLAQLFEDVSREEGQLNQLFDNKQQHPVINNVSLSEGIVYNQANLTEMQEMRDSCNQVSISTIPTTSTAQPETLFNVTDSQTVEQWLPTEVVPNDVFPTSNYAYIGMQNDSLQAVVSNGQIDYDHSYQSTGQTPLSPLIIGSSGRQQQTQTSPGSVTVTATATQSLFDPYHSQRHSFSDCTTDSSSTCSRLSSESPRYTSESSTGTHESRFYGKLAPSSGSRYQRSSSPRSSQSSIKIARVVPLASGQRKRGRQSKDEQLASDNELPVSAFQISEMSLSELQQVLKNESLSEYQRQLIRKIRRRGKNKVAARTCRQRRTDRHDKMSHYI

[12] = molecular target: Melanin-concentrating hormone receptor 1 (Homo sapiens, UniProt Q99705); test: Fluorescence-based counterscreen for antagonists of the G-protein coupled receptor 7 (GPR7): cell-based high throughput dose response assay to identify antagonists of the melanin-concentrating hormone receptor 1 (MCHR1).; assay type: functional
Melanin-concentrating hormone receptor 1, sequence (Q99705 whole entry): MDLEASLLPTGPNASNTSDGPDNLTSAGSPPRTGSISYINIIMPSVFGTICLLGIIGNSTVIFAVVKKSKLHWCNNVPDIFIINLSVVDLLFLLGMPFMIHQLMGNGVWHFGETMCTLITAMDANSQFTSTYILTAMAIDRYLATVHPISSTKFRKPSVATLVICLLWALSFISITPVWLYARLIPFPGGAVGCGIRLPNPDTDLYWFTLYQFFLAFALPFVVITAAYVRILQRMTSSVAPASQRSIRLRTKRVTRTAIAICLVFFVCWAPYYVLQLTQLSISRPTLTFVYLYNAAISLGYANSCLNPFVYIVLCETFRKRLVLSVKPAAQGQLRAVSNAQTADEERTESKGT

Neuropeptide Y receptor type 1, sequence (P25929 whole entry): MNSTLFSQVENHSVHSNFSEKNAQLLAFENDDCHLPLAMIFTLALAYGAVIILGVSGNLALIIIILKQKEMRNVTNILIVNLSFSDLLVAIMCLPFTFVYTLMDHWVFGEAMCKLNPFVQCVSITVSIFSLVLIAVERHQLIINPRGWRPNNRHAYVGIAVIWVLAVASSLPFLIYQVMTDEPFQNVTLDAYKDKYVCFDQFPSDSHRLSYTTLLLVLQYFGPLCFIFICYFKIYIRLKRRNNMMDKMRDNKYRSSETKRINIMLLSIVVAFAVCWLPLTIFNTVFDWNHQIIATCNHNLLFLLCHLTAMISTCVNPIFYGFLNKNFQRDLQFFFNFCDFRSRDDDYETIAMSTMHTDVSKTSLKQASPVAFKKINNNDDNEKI

With Cc1cc(Cl)c(OCCCNCc2ccccc2)c(Br)c1 as the compound, how does the IC50 [1] read?
Its IC50 is 5.39 µM (active).

What about the EC50 [2] of the same compound?
Its EC50 is 1.86 µM (active).

And the IC50 [3]?
Its IC50 is 5.15 µM (active).

What about the EC50 [4] of the same compound?
The EC50 was 21.9 µM (active).

What about the EC50 [5] of the same compound?
Its EC50 is 14.3 µM (active).

And the EC50 [6]?
Its EC50 is 16.5 µM (active).

What about the IC50 [7] of the same compound?
The IC50 was > 96.6 µM (inactive).

What does the source list for Cc1noc(C)c1CSc1nc2sc(C)c(C)c2c(=O)n1C1CCCC1?
EC50 [8]: 5.22 µM (active); EC50 (Streptococcus [9]): > 500 µM (not active); EC50 (Streptokinase A): 3.31 µM (active); EC50 (Streptococcus [10]): > 150 µM (not active)

Which IC50 [11] does the source give for CC(OC(=O)/C(C#N)=C/c1ccc(N(C)C)cc1)C(=O)N(C)c1ccccc1 (stereo not given) here?
The IC50 was 40.3 µM (not active).

And the IC50 (Insulin-degrading enzyme)?
Its IC50 is 21.4 µM (not active).

What about the IC50 (Protein skinhead-1) of the same compound?
The IC50 was > 100 µM (inactive).

With CC(C)Cc1cc(C(=O)N2CCCC(CO)(Cc3ccc(F)cc3F)C2)[nH]n1 (stereo not given) as the compound, how does the IC50 [12] read?
Its IC50 is 33 µM (not active).
